Assay results: US8946261B2, “Substituted 1, 2, 3, 4-tetrahydroquinolin-7-yl carbamates as acetylcholinesterase inhibitors for treatment of Alzheimer's disease” (priority 2011, dated 2015)

Columns and labels:
[1] = biological target: T1, Acetylcholinesterase (AChE) (Mus musculus, UniProt P21836); experiment: Acetylcholinesterase (AChE) assay in brain (in vitro), Ellman method; type: biochemical, Swiss albino mice; conditions: for inhibition at 10 µM / inhibition at 100 µM: read-out: % Inhibition of AChE enzyme; for AChE inhibitory activity compared to rivastigmine: comparison with rivastigmine
T1 construct: A 10% (w/v) homogenate of brain was prepared; from tissue; host or cells: whole brain of adult Swiss albino mice; supernatant (100,000 g) of the 1% Triton X-100 treated homogenate
T1 sequence (P21836 32-614): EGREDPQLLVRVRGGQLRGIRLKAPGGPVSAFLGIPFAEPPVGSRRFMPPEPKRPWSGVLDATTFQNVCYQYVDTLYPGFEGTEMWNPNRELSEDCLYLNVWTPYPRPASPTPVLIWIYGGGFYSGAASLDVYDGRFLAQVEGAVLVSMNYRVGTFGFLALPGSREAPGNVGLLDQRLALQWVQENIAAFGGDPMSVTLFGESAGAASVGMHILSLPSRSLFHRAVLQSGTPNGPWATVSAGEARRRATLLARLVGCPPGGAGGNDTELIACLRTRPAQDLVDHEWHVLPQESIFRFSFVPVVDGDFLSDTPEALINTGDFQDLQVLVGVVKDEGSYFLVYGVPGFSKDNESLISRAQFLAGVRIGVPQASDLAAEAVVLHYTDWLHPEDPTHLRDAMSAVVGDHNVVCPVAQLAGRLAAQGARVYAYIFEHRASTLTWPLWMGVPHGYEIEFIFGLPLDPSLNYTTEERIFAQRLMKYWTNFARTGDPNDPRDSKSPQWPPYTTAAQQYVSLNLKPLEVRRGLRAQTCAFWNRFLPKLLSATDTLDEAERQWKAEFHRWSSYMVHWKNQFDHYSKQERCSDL
Method: Acetylcholinesterase (AChE) Assay in Brain (In Vitro)
The mice were perfused under mild ether anesthesia through heart with ice cooled normal saline (0.9% NaCl) to remove blood-born cholinesterase from the brain. After perfusion the whole brain was taken out. A 10% (w/v) homogenate of brain was prepared first by homogenizing in an Ultra-Turrax T25 homogenizer at a speed of 9500 rpm thrice giving intervals for few seconds in between the runs, with sodium phosphate buffer (0.03 M, pH-7)).
The brain homogenate in volume of 500 μl was mixed with 1% Triton X-100 (1% w/v in 0.03M sodium phosphate buffer, pH-7) and centrifuged at 100,000 g at 4° C. in a Beckman Ultracentrifuge (LE 80, USA), using a fixed angle rotor (80 ti) for 60 min. Supernatant was collected and stored at 4° C. for acetylcholinesterase estimation.
The assay for each sample was run in triplicate and each experiment was performed twice.
The specific activity of AChE is expressed in μM/min/mg of protein.
The test substance (dissolved in ethanol) was incubated with enzyme source in different concentrations ([…]) for 30 min at 37° C. prior to obtain kinetic profile of AChE activity. […] The AChE inhibitory activity was calculated on the basis of % decrease in AChE activity from control values i.e. AChE activity without incubation with any standard or test drug.
The results are expressed as mean±S.E.M. Statistical analysis of passive avoidance values were performed by t-test. The IC50 value was calculated by non linear regression method using GraphPad Prism software.

[2] = test system: Swiss albino male mice; experiment: Gross behavioral study; conditions: for cholinergic symptoms / side effects: upto 24 hrs of drug administration; for cholinergic symptoms: 25 mg/kg; for side effects: 50 mg/kg

| SMILES | IC50 [1] | inhibition at 10 µM [1] | inhibition at 100 µM [1] | other results |
| --- | --- | --- | --- | --- |
| Cc1ccccc1NC(=O)Oc1ccc2c(c1)N(Cc1ccccc1)CCC2 [Compound 8a, 1-benzyl-1,2,3,4-tetrahydroquinolin-7-yl 2-methylphenylcarbamate] | 13 ± 0.66 µM | 44.1% | 90.4% | – |
| Cc1ccc(NC(=O)Oc2ccc3c(c2)N(Cc2ccccc2)CCC3)cc1 [Compound 8b, 1-benzyl-1,2,3,4-tetrahydroquinolin-7-yl 4-methylphenylcarbamate] | 354 ± 21.5 µM | 5.41% | 25.1% | – |
| O=C(Nc1ccccc1F)Oc1ccc2c(c1)N(Cc1ccccc1)CCC2 [Compound 8c, 1-benzyl-1,2,3,4-tetrahydroquinolin-7-yl 2-fluorophenylcarbamate] | > 100 µM | 9.87% | 19.5% | – |
| O=C(Nc1ccc(F)cc1)Oc1ccc2c(c1)N(Cc1ccccc1)CCC2 [Compound 8d, 1-benzyl-1,2,3,4-tetrahydroquinolin-7-yl 4-fluorophenylcarbamate] | > 100 µM | 5.23% | 15.5% | – |
| O=C(Nc1ccc(Cl)cc1)Oc1ccc2c(c1)N(Cc1ccccc1)CCC2 [Compound 8f, 1-benzyl-1,2,3,4-tetrahydroquinolin-7-yl 4-chlorophenylcarbamate] | > 100 µM | 2.1% | 12.5% | – |
| CCCCCCCNC(=O)Oc1ccc2c(c1)N(Cc1ccccc1)CCC2 [Compound 8h, 1-benzyl-1,2,3,4-tetrahydroquinolin-7-yl heptylcarbamate] | > 100 µM | 5.2% | 10.1% | – |
| COc1ccccc1NC(=O)Oc1ccc2c(c1)N(Cc1ccccc1)CCC2 [Compound 8i, 1-benzyl-1,2,3,4-tetrahydroquinolin-7-yl 2-methoxyphenylcarbamate] | 298 ± 12.7 µM | 2.5% | 24.1% | – |
| COc1ccc(NC(=O)Oc2ccc3c(c2)N(Cc2ccccc2)CCC3)cc1 [Compound 8j, 1-benzyl-1,2,3,4-tetrahydroquinolin-7-yl 4-methoxyphenylcarbamate] | > 100 µM | 1.41% | 3.59% | – |
| CN1CCCc2ccc(OC(=O)Nc3ccccc3F)cc21 [Compound 8l, 1-methyl-1,2,3,4-tetrahydroquinolin-7-yl 2-fluorophenylcarbamate] | 55.9 ± 2.97 µM | 32.8% | 58.8% | – |
| Cc1ccc(NC(=O)Oc2ccc3c(c2)NCCC3)cc1 [Compound 9a, 1,2,3,4-tetrahydroquinolin-7-yl 4-methylphenylcarbamate] | > 100 µM | 0.01% | 1.45% | – |
| O=C(Nc1ccccc1F)Oc1ccc2c(c1)NCCC2 [Compound 9b, 1,2,3,4-tetrahydroquinolin-7-yl 2-fluorophenylcarbamate] | 76.3 ± 0.9 µM | 10.5% | 55.7% | – |
| O=C(Nc1ccc(F)cc1)Oc1ccc2c(c1)NCCC2 [Compound 9c, 1,2,3,4-tetrahydroquinolin-7-yl 4-fluorophenylcarbamate] | 327 ± 15.9 µM | 1.15% | 21.6% | – |
| O=C(Nc1ccc(Cl)cc1)Oc1ccc2c(c1)NCCC2 [Compound 9d, 1,2,3,4-tetrahydroquinolin-7-yl 4-chlorophenylcarbamate] | 126 ± 4.17 µM | 1.86% | 38.9% | – |
| C#CCN1CCCc2ccc(OC(=O)Nc3ccccc3C)cc21 [Compound 10a, 1-(prop-2-ynyl)-1,2,3,4-tetrahydroquinolin-7-yl 2-methylphenylcarbamate] | 13.3 ± 3.33 µM | 52.5% | 60.8% | – |
| C#CCN1CCCc2ccc(OC(=O)NCCCCCCC)cc21 [Compound 10b, 1-(prop-2-ynyl)-1,2,3,4-tetrahydroquinolin-7-yl heptylcarbamate] | 7.59 ± 0.62 µM | 55.5% | 77.2% | AChE inhibitory activity, fold lower compared to the drug Rivastigmine ([1]; fold lower than Rivastigmine): 7 fold; tolerability ([2]; 125 mg/kg oral dose): Well tolerated; cholinergic symptoms / side effects ([2]; 125 mg/kg oral dose): No cholinergic symp- |
| C#CCN1CCCc2ccc(OC(=O)Nc3ccccc3Br)cc21 [Compound 10c, 1-(prop-2-ynyl)-1,2,3,4-tetrahydroquinolin-7-yl 2-bromophenylcarbamate] | 2.82 ± 0.04 µM | 71.7% | 87.3% | AChE inhibitory activity compared to rivastigmine [1]: almost equal |
| C#CCN1CCCc2ccc(OC(=O)Nc3c(C)cccc3C(C)C)cc21 [Compound 10d, 1-(prop-2-ynyl)-1,2,3,4-tetrahydroquinolin-7-yl 2-isopropyl-6-methylphenylcarbamate] | > 100 µM | 17.9% | 22.5% | – |
| C#CCN1CCCc2ccc(OC(=O)Nc3ccccc3OC)cc21 [Compound 10e, 1-(prop-2-ynyl)-1,2,3,4-tetrahydroquinolin-7-yl 2-methoxyphenylcarbamate] | 0.92 ± 0.12 µM | 95.4% | 96.3% | AChE inhibitory activity compared to rivastigmine [1]: slightly better; tolerability ([2]; 125 mg/kg oral dose): Well tolerated; cholinergic symptoms / side effects ([2]; 125 mg/kg oral dose): No cholinergic symp- |
| C#CCN1CCCc2ccc(OC(=O)Nc3ccc(Cl)cc3)cc21 [Compound 10f, 1-(prop-2-ynyl)-1,2,3,4-tetrahydroquinolin-7-yl 4-chlorophenylcarbamate] | 756 ± 208 µM | 25.4% | 30.9% | – |
| C#CCN1CCCc2ccc(OC(=O)N(C)C)cc21 [Compound 10g, 1-(prop-2-ynyl)-1,2,3,4-tetrahydroquinolin-7-yl dimethylcarbamate] | 0.68 ± 0.02 µM | 94.2% | 96.5% | AChE inhibitory activity compared to rivastigmine [1]: slightly better |
| COc1cc2c(cc1OC)C(=O)C(CC1CCN(Cc3ccccc3)CC1)C2 (centres unmarked) [Donepezil] | – | – | – | tolerability ([2]; 5 mg/kg dose): well tolerated; cholinergic symptoms [2]: Moderate cholinergic; cholinergic symptoms ([2]; listed as donepezil): moderate cholinergic symptoms; side effects [2]: severe side effects were found initially and all; side effects ([2]; listed as donepezil): severe side effects were found initially |
| CCN(C)C(=O)Oc1cccc([C@H](C)N(C)C)c1 [Rivastigmine] | – | – | – | overall locomotor activity ([2]; 1 mg/kg): locomotor activity was normal as control group.; peripheral cholinergic symptoms / tolerability ([2]; 1 mg/kg): 1 mg/kg: No peripheral cholinergic symptoms. Overall; duration of symptom phase ([2]; 2 mg/kg): 25 to 30 min; onset of symptoms after dosing ([2]; 2 mg/kg): 2 mg/kg: 5-10 min after dosing animals become; recovery to normal after dosing ([2]; 2 mg/kg): animals become normal one hr after; time gap between cholinergic side effect and death ([2]; 4 mg/kg): administration. There was no detectable time gap; mortality ([2]; 4 mg/kg oral): 100%; time to mortality after drug administration ([2]; 4 mg/kg oral): ≤ 15 min; peripheral side effects ([2]; oral dose of 3 mg/kg): some peripheral side effects |
| Nc1c2c(nc3ccccc13)CCCC2 [Tacrine] | – | – | – | tolerability ([2]; 5 mg/kg dose): well tolerated at 5 mg/kg dose |
